This note sets out measurements from ChEMBL document CHEMBL1649327, “In vitro antimicrobial activity and mutant prevention concentration of colistin against Acinetobacter baumannii” (Antimicrob Agents Chemother, 2010).

Broadly, the MIC50 is the lowest concentration that inhibits either 50% of growth or 50% of the strains tested, depending on the study. A word on the MIC90: it is the lowest concentration that inhibits either 90% of growth or 90% of the strains tested, depending on the study. The term Cmax denotes the peak of the concentration-time curve.

In brackets after ≈: the same amount, converted by molar mass.

Data set [1] deals with Acinetobacter baumannii. Put plainly: Antimicrobial activity against Acinetobacter baumannii assessed as resistant isolate by broth dilution method. The format is functional. For orientation: Broth dilution looks for growth in wells or tubes with falling amounts of substance.
Data set [2] relates to Acinetobacter baumannii. The data set is described as follows: Antimicrobial activity against Acinetobacter baumannii assessed as susceptible isolate by broth dilution method. The format is functional.
Data set [3] relates to Acinetobacter baumannii. Put plainly: Antimicrobial activity against Acinetobacter baumannii by broth dilution method. The format is functional.
In data set [4] the test system is Acinetobacter baumannii. The data set is described as follows: Antimicrobial activity against Acinetobacter baumannii by broth dilution method in presence of beta-lactamase inhibitor Sulbactam. The format is functional.
The test system of data set [5] is Acinetobacter baumannii. The data set is described as follows: Antimicrobial activity against Acinetobacter baumannii assessed as susceptible isolate by broth dilution method in presence of beta-lactamase inhibitor Sulbactam. The format is functional.
In data set [6] the test system is Acinetobacter baumannii. Put plainly: Antimicrobial activity against Acinetobacter baumannii assessed as resistant isolate by broth dilution method in presence of beta-lactamase inhibitor Sulbactam. The format is functional.
Data set [7] has as its system Acinetobacter baumannii. The data set is described as follows: Ratio of mutant prevention concentration for Acinetobacter baumannii to MIC for Acinetobacter baumannii. The format is functional, organism-based.
Data set [8] has as its system Acinetobacter baumannii. Put plainly: Antimicrobial activity against Acinetobacter baumannii assessed as mutant prevention concentration require for 90% of isolates. The format is functional, organism-based.
Data set [9] has as its system Acinetobacter baumannii. The data set is described as follows: Antimicrobial activity against Acinetobacter baumannii assessed as mutant prevention concentration. The format is functional, organism-based.
In data set [10] the test system is Homo sapiens. Put plainly: Cmax in patient at 225 mg, iv every 12 hrs for 2 days. The format is ADME, organism-based. Also noted: dose 225 mg, route intravenous. Particulars: in vivo.
Data set [11] concerns Homo sapiens. Put plainly: Cmax in patient at 225 mg, iv every 8 hrs for 2 days. More on the design: dose 225 mg, route intravenous. The note with it: in vivo. The format is ADME, organism-based.
For data set [12], the system named is Acinetobacter baumannii. Put plainly: Antimicrobial activity against Acinetobacter baumannii assessed as resistant isolate by broth dilution method in presence of cilastatin. The format is functional.
Data set [13] concerns Acinetobacter baumannii. The data set is described as follows: Antimicrobial activity against Acinetobacter baumannii by broth dilution method in presence of cilastatin. The format is functional.
Data set [14] deals with Acinetobacter baumannii. The data set is described as follows: Antimicrobial activity against Acinetobacter baumannii assessed as susceptible isolate by broth dilution method in presence of cilastatin. The format is functional.

As for `C[C@H]1COc2c(N3CCN(C)CC3)c(F)cc3c(=O)c(C(=O)O)cn1c23.C[C@H]1COc2c(N3CCN(C)CC3)c(F)cc3c(=O)c(C(=O)O)cn1c23.O` [LEVOFLOXACIN], the Activity with Acinetobacter baumannii [1] stood at 32.8%. Besides, the Activity in the data set with Acinetobacter baumannii [2] was found to be 38.6%. In the data set with Acinetobacter baumannii [3], this compound displayed an MIC50 of 4 mg/L and an MIC90 of 16 mg/L.

As to `CO/N=C(\C(=O)N[C@@H]1C(=O)N2C(C(=O)[O-])=C(C[N+]3(C)CCCC3)CS[C@H]12)c1csc(N)n1`, the Activity amounted to 81.4% in the data set with Acinetobacter baumannii [1] and 15.7% in the data set on Acinetobacter baumannii [2].

In the case of `CCN1CCN(C(=O)N[C@@H](C(=O)N[C@@H]2C(=O)N3C(C(=O)O)=C(CSc4nnnn4C)CS[C@H]23)c2ccc(O)cc2)C(=O)C1=O` [CEFOPERAZONE], in the data set with Acinetobacter baumannii [4], the MIC50 was above 128 mg/L and the MIC90 was above 128 mg/L. Besides, in the data set on Acinetobacter baumannii [5], the Activity was found to be 17.2%. For the same compound, the Activity in the data set with Acinetobacter baumannii [6] was 81.4%.

For the compound `CCN1CCN(C(=O)N[C@@H](C(=O)N[C@@H]2C(=O)N3[C@@H]2SC(C)(C)[C@@H]3C(=O)O)c2ccccc2)C(=O)C1=O` [PIPERACILLIN], the MIC50 with Acinetobacter baumannii [4] was above 128 mg/L; in the data set with Acinetobacter baumannii [3], 128 mg/L (≈ 247 µM). Moreover, the MIC90 in the data set with Acinetobacter baumannii [4] and with Acinetobacter baumannii [3] was above 128 mg/L throughout. Besides, the Activity was 17.2% with Acinetobacter baumannii [5], 82.9% in the data set on Acinetobacter baumannii [1], 71.4% in the data set with Acinetobacter baumannii [6] and 10% with Acinetobacter baumannii [2].

Regarding COLISTIN [listing 1 of 2 here], the Ratio in the data set on Acinetobacter baumannii [7] was 128. Further, the MPC in the data set with Acinetobacter baumannii [8] and in the data set on Acinetobacter baumannii [9] was above 128 µg/mL in each case. Also, the results for the Activity in the data set on Acinetobacter baumannii [1] and in the data set on Acinetobacter baumannii [2] were 0% and 100%, respectively. In addition, the MIC50 in the data set on Acinetobacter baumannii [3] was 1 mg/L. The compound also yielded an MIC90 against Acinetobacter baumannii [3] of 1 mg/L.

With `CC(C)(O/N=C(\C(=O)N[C@@H]1C(=O)N2C(C(=O)[O-])=C(C[n+]3ccccc3)CS[C@H]12)c1csc(N)n1)C(=O)O` [CEFTAZIDIME], the Activity in the data set with Acinetobacter baumannii [1] stood at 77.1%. In addition, in the data set with Acinetobacter baumannii [2], the Activity is listed as 17.2%. In the data set with Acinetobacter baumannii [3], this compound gave an MIC50 above 128 mg/L and an MIC90 above 128 mg/L.

`CC1(C)S[C@@H]2[C@H](NC(=O)[C@H](N)c3ccccc3)C(=O)N2[C@H]1C(=O)O` [AMPICILLIN]: in the data set on Acinetobacter baumannii [4], the MIC50 stood at 128 mg/L and the MIC90 is above 128 mg/L. Moreover, in the data set on Acinetobacter baumannii [6], the Activity worked out at 81.4%.

Take COLISTIN [listing 2 of 2 here]: the peak concentration (Cmax) with Homo sapiens [10] and in the data set on Homo sapiens [11] was 2.93 µg/mL throughout.

Regarding `C[C@@H](O)[C@H]1C(=O)N2C(C(=O)O)=C(S[C@@H]3CN[C@H](C(=O)N(C)C)C3)[C@H](C)[C@H]12` [MEROPENEM], in the data set with Acinetobacter baumannii [1], the Activity is on record as 77.1%. Also, the Activity with Acinetobacter baumannii [2] is listed as 22.9%. Moreover, in the data set with Acinetobacter baumannii [3], the MIC50 is 32 mg/L (≈ 83.4 µM) and the MIC90 was determined as 64 mg/L (≈ 167 µM).

Take `O=C(O)c1cn(C2CC2)c2cc(N3CCNCC3)c(F)cc2c1=O` [CIPROFLOXACIN]: the figures for the Activity in the data set with Acinetobacter baumannii [1] and in the data set with Acinetobacter baumannii [2] were 82.9% and 15.7%, respectively.

With `NCC[C@H](O)C(=O)N[C@@H]1C[C@H](N)[C@@H](O[C@H]2O[C@H](CN)[C@@H](O)[C@H](O)[C@H]2O)[C@H](O)[C@H]1O[C@H]1O[C@H](CO)[C@@H](O)[C@H](N)[C@H]1O` [AMIKACIN], the Activity in the data set with Acinetobacter baumannii [1] is 71.4%. Further, the Activity with Acinetobacter baumannii [2] came to 28.6%. Also, in the data set on Acinetobacter baumannii [3], the MIC50 is above 128 mg/L and the MIC90 was above 128 mg/L.

Regarding `C[C@@H](O)[C@H]1C(=O)N2C(C(=O)O)=C(SCCNC=N)C[C@H]12` [IMIPENEM ANHYDROUS], the Activity in the data set on Acinetobacter baumannii [12] was found to be 75.7%. Further, in the data set with Acinetobacter baumannii [13], the MIC50 was found to be 16 mg/L and the MIC90 is 128 mg/L. The Activity with Acinetobacter baumannii [14] is listed as 21.4%.

With `CCN[C@@H]1C[C@H](N)[C@@H](O[C@H]2OC(CN)=CC[C@H]2N)[C@H](O)[C@H]1O[C@H]1OC[C@](C)(O)[C@H](NC)[C@H]1O` [NETILMICIN], the Activity with Acinetobacter baumannii [1] is 75.7%; in the data set with Acinetobacter baumannii [2], 20%. This compound also showed an MIC50 against Acinetobacter baumannii [3] above 128 mg/L. Further, the MIC90 in the data set on Acinetobacter baumannii [3] is above 128 mg/L.
